Measured values reported in US8008502B2, “Thiazoline acid derivatives” (University of Florida Research Foundation, Inc., priority 1998, dated 2011).

Tests used:
animal models = conditions: literature; cited from earlier work
[1] = tested on: iron-overloaded primate model; conditions: po, 150 umol/kg, 24 h
Procedure: The drug was prepared as a solution in 40% Cremophor-H2O and administered at a dose of 1.50 μmol/kg p.o. The monkeys were fasted for 24 hours before dosing.

[2] = tested on: non-iron-overloaded, bile duct-cannulated rat; assay: Iron excretion in the non-iron-overloaded, bile duct-cannulated rat; type: in vivo; conditions: 150 μmol/kg p.o., solution in 40% Cremophor-H2O, rats fasted for 24 hours
Procedure: Preparation of Drugs. Drug solutions were prepared in 60% water, 40% Cremophor RH-40.
Initial testing of 1 was performed in the non-iron-overloaded, bile duct-cannulated rat [J. Med. Chem., Vol. 34, Bergeron et al, “Synthesis and Biological Evaluation of Hydroxamate-Based Iron Chelators,” pages 3182-3187 (1991)]. The drug was prepared as a solution in 40% Cremophor-H2O and administered at a dose of 150 μmol/kg p.o. The rats were fasted for 24 hours before dosing. The efficiency of iron excretion induced by 1 was 2.4±0.92%.

Row | SMILES | clearing iron (animal models) | efficiency (iron excretion) [1] [%] | efficiency of iron excretion [2] [%]
1 | O=C(N[C@H]1COC(=O)[C@@H](NC(=O)c2cccc(O)c2O)COC(=O)[C@@H](NC(=O)c2cccc(O)c2O)COC1=O)c1cccc(O)c1O [enterobactin] | only marginally effective |  | 
2 | O=C(O)[C@H]1CSC(c2ccc(O)cc2O)=N1 [Compound 1, 4,5-dihydro-2-(2,4-dihydroxyphenyl)-thiazole-4(S)-carboxylic acid] |  | 4.2±1.4 | 2.4±0.92
3 | CC(=O)N(O)CCC[C@@H]1NC(=O)[C@H](CCCN(O)C(C)=O)NC1=O [rhodotorulic acid] | reasonably active |  | 
